Values quoted from earlier work as cited in PubChem BioAssay AID1259409 (Chemical Carcinogenesis Research Information System (CCRIS), 2018).
Where “and” joins values, the source holds several entries; their conditions need not be identical. Equal entries are not always repeated.

Test system: rodent chemically induced tumor inhibition, incidence and multiplicity
Test: CCRIS tumor inhibitor studies
Settings: Promoter: NONE USED

N[C@@H](CCC(=O)N[C@@H](CS)C(=O)NCC(=O)O)C(=O)O
tumour outcome (control, treated, inhibition, significance) (Carcinogen: TRANS-5-AMINO-3-[2-(5-NITRO-2-FURYL)VINYL]-1,2,4-OXADIAZOLE;SQL8506, 28754-68-9, Carcinogen: TRANS-5-AMINO-3-[2-(5-NITRO-2-FURYL)VINYL]-1,2,4-OXADIAZOLE;SQL8506, 28754-68-9, Dose [Inhibitor]: 400 MG/KG 16 HR BEFORE THE 1ST CARCINOGEN DOSE FOLLOWED BY ADDITIONAL INJECTIONS IMMEDIATELY BEFORE EACH DOSE OF CARCINO, Route [Inhibitor]: INTRAPERITONEAL, Species: MOUSE, Strain/Sex: CD-1/FEMALE, Target Tissue: Type of Lesion: HEMATOPOIETIC SYSTEM: MYELOID LEUKEMIA, Dose [Carcinogen]: 1 G/KG 2/D FOR 5 D EVERY 4 WK FOR 3 COURSES OF TREATMENT): 7/137 (5%), 2/35 (6%), -20%, not calculated
tumour outcome (control, treated, inhibition, significance) (Carcinogen: TRANS-5-AMINO-3-[2-(5-NITRO-2-FURYL)VINYL]-1,2,4-OXADIAZOLE;SQL8506, 28754-68-9, Carcinogen: TRANS-5-AMINO-3-[2-(5-NITRO-2-FURYL)VINYL]-1,2,4-OXADIAZOLE;SQL8506, 28754-68-9, Dose [Inhibitor]: 400 MG/KG 16 HR BEFORE THE 1ST CARCINOGEN DOSE FOLLOWED BY ADDITIONAL INJECTIONS IMMEDIATELY BEFORE EACH DOSE OF CARCINO, Route [Inhibitor]: INTRAPERITONEAL, Species: MOUSE, Strain/Sex: CD-1/FEMALE, Target Tissue: Type of Lesion: LYMPHOID TISSUE: NONTHYMIC LYMPHOMA, Dose [Carcinogen]: 1 G/KG 2/D FOR 5 D EVERY 4 WK FOR 3 COURSES OF TREATMENT): 8/137 (6%), 3/35 (8%), -33%, not calculated
tumour outcome (control, treated, inhibition, significance) (Carcinogen: TRANS-5-AMINO-3-[2-(5-NITRO-2-FURYL)VINYL]-1,2,4-OXADIAZOLE;SQL8506, 28754-68-9, Carcinogen: TRANS-5-AMINO-3-[2-(5-NITRO-2-FURYL)VINYL]-1,2,4-OXADIAZOLE;SQL8506, 28754-68-9, Dose [Inhibitor]: 400 MG/KG 16 HR BEFORE THE 1ST CARCINOGEN DOSE FOLLOWED BY ADDITIONAL INJECTIONS IMMEDIATELY BEFORE EACH DOSE OF CARCINO, Route [Inhibitor]: INTRAPERITONEAL, Species: MOUSE, Strain/Sex: CD-1/FEMALE, Target Tissue: Type of Lesion: LYMPHOID TISSUE: THYMIC LYMPHOMA, Dose [Carcinogen]: 1 G/KG 2/D FOR 5 D EVERY 4 WK FOR 3 COURSES OF TREATMENT): 22/137 (16%), 2/35 (6%), 62%, not calculated
tumour outcome (control, treated, inhibition, significance) (Carcinogen: TRANS-5-AMINO-3-[2-(5-NITRO-2-FURYL)VINYL]-1,2,4-OXADIAZOLE;SQL8506, 28754-68-9, Carcinogen: TRANS-5-AMINO-3-[2-(5-NITRO-2-FURYL)VINYL]-1,2,4-OXADIAZOLE;SQL8506, 28754-68-9, Dose [Inhibitor]: 400 MG/KG 16 HR BEFORE THE 1ST CARCINOGEN DOSE FOLLOWED BY ADDITIONAL INJECTIONS IMMEDIATELY BEFORE EACH DOSE OF CARCINO, Route [Inhibitor]: INTRAPERITONEAL, Species: MOUSE, Strain/Sex: CD-1/FEMALE, Target Tissue: Type of Lesion: STOMACH: SQUAMOUS CARCINOMA, Dose [Carcinogen]: 1 G/KG 2/D FOR 5 D EVERY 4 WK FOR 3 COURSES OF TREATMENT): 60/137 (44%), 12/35 (34%), 23%, not calculated

COc1ccc2c(c1)CCC(c1ccccc1)=C2c1ccc(OCCN2CCCC2)cc1
tumour outcome (control, treated, inhibition, significance) (Carcinogen: 7,12-DIMETHYLBENZ[A]ANTHRACENE, 57-97-6, Dose [Inhibitor]: 1 MG/KG 3/WK BEGINNING 2 D AFTER DMBA TREATMENT (STUDY DURATION: 5 MO), Route [Inhibitor]: SUBCUTANEOUS, Species: RAT, Strain/Sex: SPRAGUE-DAWLEY/FEMALE, Target Tissue: Type of Lesion: MAMMARY GLAND: ADENOCARCINOMA, FIBROADENOMA, Dose [Carcinogen]: 5 MG IN 0.5 ML CORN OIL AT 50 D OF AGE): 56%, 10%, 82%, not calculated and 34%, 1%, 97%, not calculated
tumour outcome (control, treated, inhibition, significance) (Carcinogen: 7,12-DIMETHYLBENZ[A]ANTHRACENE, 57-97-6, Dose [Inhibitor]: 1 MG/KG 3/WK BEGINNING 2 D AFTER DMBA TREATMENT (STUDY DURATION: 5 MO), Route [Inhibitor]: SUBCUTANEOUS, Species: RAT, Strain/Sex: SPRAGUE-DAWLEY/FEMALE, Target Tissue: Type of Lesion: MAMMARY GLAND: ADENOCARCINOMA, FIBROADENOMA, Dose [Carcinogen]: 10 MG IN 0.5 ML CORN OIL AT 50 D OF AGE): 58%, 27%, 53%, not calculated and 38%, 10%, 74%, not calculated
tumour outcome (control, treated, inhibition, significance) (Carcinogen: 7,12-DIMETHYLBENZ[A]ANTHRACENE, 57-97-6, Dose [Inhibitor]: 1 MG/KG 3/WK BEGINNING 15 D AFTER DMBA TREATMENT (STUDY DURATION: 5 MO), Route [Inhibitor]: SUBCUTANEOUS, Species: RAT, Strain/Sex: SPRAGUE-DAWLEY/FEMALE, Target Tissue: Type of Lesion: MAMMARY GLAND: ADENOCARCINOMA, FIBROADENOMA, Dose [Carcinogen]: 5 MG IN 0.5 ML CORN OIL AT 50 D OF AGE): 56%, 22%, 61%, not calculated and 34%, 5%, 85%, not calculated

CC(=O)Nc1ccc(O)cc1
tumour outcome (control, treated, inhibition, significance) (Carcinogen: 4-(METHYLNITROSAMINO)-1-(3-PYRIDYL)-1-BUTANONE, 64091-91-4, Dose [Inhibitor]: 0, 1520 MMOL/KG BW/D IN DIET FOR DURATION OF STUDY BEGINNING 2 WK PRIOR TO CARCINOGEN TREATMENT (STUDY DURATION: 25 WK), Route [Inhibitor]: ORAL, Species: MOUSE, Strain/Sex: STRAIN-A/FEMALE, Target Tissue: Type of Lesion: LUNG:TUMOR, Dose [Carcinogen]: 2.2 MMOL/KG BW (TOTAL DOSE) ADMINISTERED IN DRINKING WATER FOR 7 WK): 29/29 (100%), 25/25 (100%), 0%, not significant
outcome (Carcinogen: N-ETHYL-N-HYDROXYETHYLNITROSAMINE, 13147-25-6, Dose [Inhibitor]: 1.3% IN DIET BEGINNING 1 WK AFTER LAST CARCINOGEN TREATMENT AND CONTINUING THROUGH DURATION OF STUDY (STUDY DURATION: 32, Route [Inhibitor]: ORAL, Species: RAT, Strain/Sex: F344/MALE, Target Tissue: Type of Lesion: KIDNEY: ADENOCARCINOMA, Dose [Carcinogen]: 0.1% IN DRINKING WATER FOR 2 WK AT BEGINNING OF STUDY): 0/23 (0%), 1/23 (4%), not significant
tumour outcome (control, treated, inhibition, significance) (Carcinogen: N-ETHYL-N-HYDROXYETHYLNITROSAMINE, 13147-25-6, Dose [Inhibitor]: 1.3% IN DIET BEGINNING 1 WK AFTER LAST CARCINOGEN TREATMENT AND CONTINUING THROUGH DURATION OF STUDY (STUDY DURATION: 32, Route [Inhibitor]: ORAL, Species: RAT, Strain/Sex: F344/MALE, Target Tissue: Type of Lesion: KIDNEY: ADENOMA, Dose [Carcinogen]: 0.1% IN DRINKING WATER FOR 2 WK AT BEGINNING OF STUDY): 5/23 (22%), 15/27 (56%), -154%, p<0.01
tumour outcome (control, treated, inhibition, significance) (Carcinogen: N-ETHYL-N-HYDROXYETHYLNITROSAMINE, 13147-25-6, Dose [Inhibitor]: 1.3% IN DIET BEGINNING 1 WK AFTER LAST CARCINOGEN TREATMENT AND CONTINUING THROUGH DURATION OF STUDY (STUDY DURATION: 32, Route [Inhibitor]: ORAL, Species: RAT, Strain/Sex: F344/MALE, Target Tissue: Type of Lesion: LIVER: HEPATOCELLULAR CARCINOMA, Dose [Carcinogen]: 0.1% IN DRINKING WATER FOR 2 WK AT BEGINNING OF STUDY): 11/23 (48%), 3/27 (11%), 77%, p<0.05

O=c1ccc2ccc(O)cc2o1
tumour outcome (control, treated, inhibition, significance) (Carcinogen: 7,12-DIMETHYLBENZ[A]ANTHRACENE, 57-97-6, Dose [Inhibitor]: 0.034 MMOL/G IN DIET FOR 8 D BEGINNING 7 D PRIOR TO CARCINOGEN DOSE (STUDY DURATION: 23 WK), Route [Inhibitor]: ORAL, Species: RAT, Strain/Sex: SPRAGUE-DAWLEY/FEMALE, Target Tissue: Type of Lesion: MAMMARY GLAND: TUMOR, Dose [Carcinogen]: 12 MG IN 1.0 ML OLIVE OIL ONCE): 93%, 93%, 0%, not significant
tumour outcome (control, treated, inhibition, significance) (Carcinogen: BENZO[A]PYRENE, 50-32-8, Dose [Inhibitor]: 0.034 MMOL/G IN DIET FOR 5 WK BEGINNING 1 WK PRIOR TO FIRST CARCINOGEN DOSE (STUDY DURATION: 21 WK), Route [Inhibitor]: ORAL, Species: MOUSE, Strain/Sex: ICR/FEMALE, Target Tissue: Type of Lesion: FORESTOMACH: TUMOR, Dose [Carcinogen]: 1 MG IN 0.2 ML CORN OIL 2/WK FOR 4 WK): 100%, 95%, 5%, not significant and 90%, 95%,-5%, not significant and 95%, 100%, -5%, not significant
tumour outcome (control, treated, inhibition, significance) (Carcinogen: BENZO[A]PYRENE, 50-32-8, Dose [Inhibitor]: 0.068 MMOL/G IN DIET FOR 5 WK BEGINNING 1 WK PRIOR TO FIRST CARCINOGEN DOSE (STUDY DURATION: 21 WK), Route [Inhibitor]: ORAL, Species: MOUSE, Strain/Sex: ICR/FEMALE, Target Tissue: Type of Lesion: FORESTOMACH: TUMOR, Dose [Carcinogen]: 1 MG IN 0.2 ML CORN OIL 2/WK FOR 4 WK): 100%, 95%, 5%, not significant

O=C1N[C@H](C(=O)O)CS1
tumour outcome (control, treated, inhibition, significance) (Carcinogen: DIETHYLNITROSAMINE, 55-18-5, Dose [Inhibitor]: 0, 600 MG/KG BW BY INTRAPERITONEAL INJECTION ON DAYS 13, 14 AND 15 OF AGE THEN 4 G/KG DIET FROM 21 TO 161 DAYS OF AGE (S, Route [Inhibitor]: INTRAPERITONEAL, ORAL, Species: MOUSE, Strain/Sex: C3H/MALE, Target Tissue: Type of Lesion: LIVER: ADENOMA, Dose [Carcinogen]: 4 MG/KG IN TRICAPRYLIN ONCE ON DAY 15 OF AGE): 100%, 100%, 0%, not significant
